target: T1, mGlyT-1b (Mus musculus, UniProt P28571); assay: Glycine uptake inhibition assay (mGlyT-1b); type: cell-based; conditions: [3H]-glycine uptake, Flp-in-CHO cells transfected with mGlyT-1b cDNA
T1 construct: host or cells: Flp-in-CHO cells, stably transfected
T1 sequence (P28571 1-651 isoform P28571-2): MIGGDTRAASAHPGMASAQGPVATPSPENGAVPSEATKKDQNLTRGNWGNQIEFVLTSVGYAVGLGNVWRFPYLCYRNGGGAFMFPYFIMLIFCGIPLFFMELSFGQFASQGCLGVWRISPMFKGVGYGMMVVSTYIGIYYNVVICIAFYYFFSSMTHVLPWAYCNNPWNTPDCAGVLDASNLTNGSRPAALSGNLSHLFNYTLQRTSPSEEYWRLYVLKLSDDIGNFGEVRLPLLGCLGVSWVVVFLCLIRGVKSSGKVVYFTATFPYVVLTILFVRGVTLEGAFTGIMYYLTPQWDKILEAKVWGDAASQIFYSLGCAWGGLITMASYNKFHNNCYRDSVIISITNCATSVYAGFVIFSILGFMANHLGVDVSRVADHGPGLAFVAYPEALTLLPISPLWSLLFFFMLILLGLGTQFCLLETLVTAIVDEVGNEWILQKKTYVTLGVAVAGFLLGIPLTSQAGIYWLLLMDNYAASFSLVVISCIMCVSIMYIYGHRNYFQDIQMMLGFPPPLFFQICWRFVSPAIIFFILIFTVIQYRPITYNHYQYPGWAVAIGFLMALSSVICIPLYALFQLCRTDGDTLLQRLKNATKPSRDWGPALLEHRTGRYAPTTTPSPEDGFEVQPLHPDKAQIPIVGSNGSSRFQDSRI
Protocol: DMEM complete medium: Nutrient mixture F-12 (Gibco Life-technologies), fetal bovine serum (FBS) 5%, (Gibco life technologies), Penicillin/Streptomycin 1% (Gibco life technologies), Hygromycin 0.6 mg/ml (Gibco life technologies), Glutamine 1 mM Gibco life technologies).
Uptake buffer (UB): 150 mM NaCl, 10 mM Hepes-Tris, pH 7.4, 1 mM CaCl2, 2.5 mM KCl, 2.5 mM MgSO4, 10 mM (+) D-glucose. Flp-in™-CHO (Invitrogen Cat n° R758-07)cells stably transfected with mGlyT1b cDNA.
Glycine uptake inhibition assay (mGlyT-1b)
On day 1 mammalian cells, (Flp-in™-CHO), transfected with mGlyT-1b cDNA, were plated at the density of 40,000 cells/well in complete F-12 medium, without hygromycin in 96-well culture plates. On day 2, the medium was aspirated and the cells were washed twice with uptake buffer (UB). The cells were then incubated for 20 min at 22° C. with either (i) no potential competitor, (ii) 10 mM non-radioactive glycine, (iii) a concentration of a potential inhibitor. A range of concentrations of the potential inhibitor was used to generate data for calculating the concentration of inhibitor resulting in 50% of the effect (e.g. IC50, the concentration of the competitor inhibiting glycine uptake of 50%). A solution was then immediately added containing [^3H]-glycine 60 nM (11-16 Ci/mmol) and 25 μM non-radioactive glycine. The plates were incubated with gentle shaking and the reaction was stopped by aspiration of the mixture and washing (three times) with ice-cold UB. The cells were lysed with scintillation liquid, shaken 3 hours and the radioactivity in the cells was counted using a scintillation counter.

Row | IC50 | Structure (SMILES)
1 | 82 nM | CS(=O)(=O)c1ccc(-c2ccccc2)c(C(=O)N2CCc3nc(C(F)(F)F)ccc3C2)c1 [Example 1.8, (4-Methanesulfonyl-biphenyl-2-yl)-(2-trifluoromethyl-7,8-dihydro-5H-[1,6]naphthyridin-6-yl)-methanone]
2 | 46 nM | CC(C)Oc1ccc(S(C)(=O)=O)cc1C(=O)N1CCc2cc(C(F)(F)F)ccc2C1 [Example 1.12, (2-Isopropoxy-5-methanesulfonyl-phenyl)-(6-trifluoromethyl-3,4-dihydro-1H-isoquinolin-2-yl)-methanone]
3 | 321 nM | CS(=O)(=O)c1ccc(N2CCOCC2)c(C(=O)N2CCc3cc(C(F)(F)F)ccc3C2)c1 [Example 1.13, (5-Methanesulfonyl-2-morpholin-4-yl-phenyl)-(6-trifluoromethyl-3,4-dihydro-1H-isoquinolin-2-yl)-methanone]
4 | 175 nM | C[C@H](Oc1ccc(S(C)(=O)=O)cc1C(=O)N1CCc2cc(C(F)(F)F)ccc2C1)C(F)(F)F [Example 1.14, [5-Methanesulfonyl-2-((S)-2,2,2-trifluoro-1-methyl-ethoxy)-phenyl]-(6-trifluoromethyl-3,4-dihydro-1H-isoquinolin-2-yl)-methanone]
5 | 168 nM | CS(=O)(=O)c1ccc(-c2ccccc2)c(C(=O)N2CCc3cc(C(F)(F)F)ccc3C2)c1 [Example 1.15, (4-Methanesulfonyl-biphenyl-2-yl)-(6-trifluoromethyl-3,4-dihydro-1H-isoquinolin-2-yl)-methanone]
6 | 157 nM | C[C@H](Oc1ccc(S(C)(=O)=O)cc1C(=O)N1CCc2cc(Cl)ccc2C1)C(F)(F)F [Example 1.18, (6-Chloro-3,4-dihydro-1H-isoquinolin-2-yl)-[5-methanesulfonyl-2-((S)-2,2,2-trifluoro-1-methyl-ethoxy)-phenyl]-methanone]
7 | 359 nM | CC(C)Oc1ccc(S(C)(=O)=O)cc1C(=O)N1CCc2cc(Cl)ccc2C1 [Example 1.19, (6-Chloro-3,4-dihydro-1H-isoquinolin-2-yl)-(2-isopropoxy-5-methanesulfonyl-phenyl)-methanone]
8 | 454 nM | CC(C)Oc1ccc(S(C)(=O)=O)cc1C(=O)N1CCc2cc(C#N)ccc2C1 [Example 1.20, 2-(2-Isopropoxy-5-methanesulfonyl-benzoyl)-1,2,3,4-tetrahydro-isoquinoline-6-carbonitrile]
9 | 215 nM | CC(C)Oc1ccc(S(C)(=O)=O)cc1C(=O)N1CCc2ccc(Cl)cc2C1 [Example 1.25, (7-Chloro-3,4-dihydro-1H-isoquinolin-2-yl)-(2-isopropoxy-5-methanesulfonyl-phenyl)-methanone]
10 | 163 nM | CC(C)Oc1ccc(S(C)(=O)=O)cc1C(=O)N1CCc2ccc(Cl)c(Cl)c2C1 [Example 1.26, (7,8-Dichloro-3,4-dihydro-1H-isoquinolin-2-yl)-(2-isopropoxy-5-methanesulfonyl-phenyl)-methanone]
11 | 344 nM | CC(C)Oc1ccc(S(C)(=O)=O)cc1C(=O)N1CCc2cccc(Cl)c2C1 [Example 1.30, (8-Chloro-3,4-dihydro-1H-isoquinolin-2-yl)-(2-isopropoxy-5-methanesulfonyl-phenyl)-methanone]
12 | 481 nM | COc1ccc2c(c1)CCN(C(=O)c1cc(S(C)(=O)=O)ccc1OC(C)C)C2 [Example 1.40, (2-Isopropoxy-5-methanesulfonyl-phenyl)-(6-methoxy-3,4-dihydro-1H-isoquinolin-2-yl)-methanone]
13 | 159 nM | CC(C)Oc1ccc(S(C)(=O)=O)cc1C(=O)N1CCc2c(ccc3c4ccccc4n(C)c23)C1 [Example 1.47, (2-Isopropoxy-5-methanesulfonyl-phenyl)-(11-methyl-1,2,4,11-tetrahydro-pyrido[4,3-a]carbazol-3-yl)-methanone]
14 | 483 nM | Cc1c2c(c(C)c3c1OCO3)CN(C(=O)c1cc(S(C)(=O)=O)ccc1OC(C)C)CC2 [Example 1.53]
15 | 160 nM | CC(C)Sc1ccc(S(C)(=O)=O)cc1C(=O)N1CCc2cc(Cl)ccc2C1 [Example 1.57, (6-Chloro-3,4-dihydro-1H-isoquinolin-2-yl)-(2-isopropylsulfanyl-5-methanesulfonyl-phenyl)-methanone]

— patent US7442710B2, “Substituted phenyl methanones” (Hoffman-La Roche Inc., priority 2005, dated 2008)
